The source of these data is US9260429B2, “Pyrido[3,4-B]indoles and methods of use” (Medivation Technologies, Inc., priority 2008, dated 2016).

Like-named read-outs stand apart in the source and are kept apart here.

Assay [1] addresses T1, human recombinant serotonin (5-Hydroxytryptamine) 5-HT2A receptor (Homo sapiens, UniProt P28223).
T1 construct: expressed in transfected cells; host or cells: CHO-K1 cells
As to the kind of experiment: Serotonin 5-HT2A radioligand binding ([3H]Ketanserin). A digest of the protocol:
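Membranes from CHO-K1 cells expressing the receptor, in 50 mM Tris-HCl pH 7.4, incubated 60 min at 25° C with 0.5 nM [3H]Ketanserin; 1 μM Mianserin defines non-specific binding. Filtration and counting; values are % inhibition of specific binding at 1 μM or lower, 1% DMSO.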

Assay [2] addresses T2, human recombinant histamine H1 receptor (Homo sapiens, UniProt P35367).
T2 construct: expressed in transfected cells; host or cells: CHO cells
As to the kind of experiment: Histamine H1 radioligand binding ([3H]Pyrilamine). A digest of the protocol:
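Binding to the human recombinant histamine H1 receptor, expressed in CHO cells, was measured in a modified Tris-HCl buffer (50 mM Tris-HCl, pH 7.4, 2 mM MgCl2, 100 mM NaCl, 250 mM Sucrose). Compounds were incubated with 1.2 nM [3H]Pyrilamine for 180 minutes at 25° C, with 1 μM pyrilamine defining non-specific binding. After filtration and washing, filter counts gave percent inhibition of specific binding.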

Where [3] appears, read: 1 h, read-out: Percent Inhibition of ligand binding Serotonin (1 μM ligand concentration) 5-HT2A.
Setting [4] is: 1 μM, read-out: Binding data (Percentage Inhibition) Histamine Binding (1 μM) H1.

T1 sequence (P28223 whole entry): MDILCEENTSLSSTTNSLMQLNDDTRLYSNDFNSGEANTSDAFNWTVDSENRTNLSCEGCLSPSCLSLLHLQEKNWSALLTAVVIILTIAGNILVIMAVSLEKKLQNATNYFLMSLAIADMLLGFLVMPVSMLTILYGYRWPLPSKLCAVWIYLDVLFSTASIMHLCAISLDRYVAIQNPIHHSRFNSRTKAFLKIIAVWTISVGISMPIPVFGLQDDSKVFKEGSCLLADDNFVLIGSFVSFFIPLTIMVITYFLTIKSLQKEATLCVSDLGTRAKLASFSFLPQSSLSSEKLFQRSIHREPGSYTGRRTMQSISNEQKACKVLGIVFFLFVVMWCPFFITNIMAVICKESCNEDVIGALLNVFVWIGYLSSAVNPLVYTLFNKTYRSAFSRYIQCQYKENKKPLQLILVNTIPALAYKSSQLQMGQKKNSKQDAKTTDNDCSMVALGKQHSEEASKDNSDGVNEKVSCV
T2 sequence (P35367 whole entry): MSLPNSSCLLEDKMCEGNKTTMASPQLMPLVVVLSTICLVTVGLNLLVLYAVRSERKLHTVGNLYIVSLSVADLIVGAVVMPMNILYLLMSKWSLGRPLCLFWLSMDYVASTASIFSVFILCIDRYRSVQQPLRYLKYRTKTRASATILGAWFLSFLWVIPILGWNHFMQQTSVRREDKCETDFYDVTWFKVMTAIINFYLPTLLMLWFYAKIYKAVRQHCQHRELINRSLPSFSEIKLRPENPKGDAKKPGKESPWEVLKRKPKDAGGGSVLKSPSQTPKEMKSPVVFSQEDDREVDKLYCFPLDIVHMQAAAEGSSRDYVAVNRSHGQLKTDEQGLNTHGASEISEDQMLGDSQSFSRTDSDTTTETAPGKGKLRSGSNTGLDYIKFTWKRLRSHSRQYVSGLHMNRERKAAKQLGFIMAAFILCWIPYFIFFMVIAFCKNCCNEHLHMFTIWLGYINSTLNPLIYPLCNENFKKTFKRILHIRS

For `Cc1ccc2c(c1)c1c(n2CCc2ccc(C(F)(F)F)nc2)CN(C)CC1` [Compound 5, 9-(2-(6-(trifluoromethyl)pyridin-3-yl)ethyl)-2,3,4,9-tetrahydro-2,6-dimethyl-1H-pyrido[3,4-b]indole], the inhibition at 1 µM in assay [1] (setting [3]) is 51%; in assay [2] (setting [4]) it was 35%.
For `CC(C)CCN(C)C(=O)Cn1c2c(c3cc(Cl)ccc31)CCN(C)C2` [Compound 14, 2-(6-chloro-1,2,3,4-tetrahydro-2-methylpyrido[3,4-b]indol-9-yl)-N-isopentyl-N-methylacetamide] the same measures were 27% and 0%.
Take `CN1CCc2c(n(CC(=O)Nc3ccc(F)cc3)c3ccc(Cl)cc23)C1` [Compound 15, 2-(6-chloro-1,2,3,4-tetrahydro-2-methylpyrido[3,4-b]indol-9-yl)-N-(4-fluorophenyl)acetamide]: the inhibition at 1 µM in assay [1] (setting [3]) amounted to 6%; in assay [2] (setting [4]), 0%.
For `CN1CCc2c(n(CC(=O)N(C)C)c3ccc(Cl)cc23)C1` [Compound 16, 2-(6-chloro-1,2,3,4-tetrahydro-2-methylpyrido[3,4-b]indol-9-yl)-N,N-dimethylacetamide], the inhibition at 1 µM in assay [1] (setting [3]) worked out at 10%; in assay [2] (setting [4]) it was 16%.
For `CN1CCc2c(n(CC(=O)NC3CCCCC3)c3ccc(Cl)cc23)C1` [Compound 17, 2-(6-chloro-1,2,3,4-tetrahydro-2-methylpyvrido[3,4-b]indol-9-yl)-N-cyclohexylacetamide] the same measures were 17% and 54%.
For `CN1CCc2c(n(CC(=O)N(C)C3CCCCC3)c3ccc(Cl)cc23)C1` [Compound 18, 2-(6-chloro-1,2,3,4-tetrahydro-2-methylpyrido[3,4-b]indol-9-yl)-N-cyclohexyl-N-methylacetamide] the same measures were -1% and 10%.
For `COC(=O)Cn1c2c(c3cc(C)ccc31)CCN(C)C2` [Compound 21, methyl 2-(1,2,3,4-tetrahydro-2,6-dimethylpyrido[3,4-b]indol-9-yl)acetate] the same measures were 4% and 3%.
Take `CN1CCc2c(n(CCCc3ccccc3)c3ccc(Cl)cc23)C1` [Compound 29, 6-chloro-2,3,4,9-tetrahydro-2-methyl-9-(3-phenylpropyl)-1H-pyrido[3,4-b]indole]: the values for the inhibition at 1 µM in assay [1] (setting [3]) and in assay [2] (setting [4]) were 83% and 98%, respectively.
For `CN1CCc2c(n(CCN3CCCCC3)c3ccc(Cl)cc23)C1` [Compound 34, 6-chloro-2,3,4,9-tetrahydro-2-methyl-9-(2-(piperidin-1-yl)ethyl)-1H-pyrido[3,4-b]indole] the same measures were 31% and 56%.
Regarding `CN1CCc2c(n(CCC3CCCC3)c3ccc(Cl)cc23)C1` [Compound 35, 6-chloro-9-(2-cyclopentylethyl)-2,3,4,9-tetrahydro-2-methyl-1H-pyrido[3,4-b]indole], the values for the inhibition at 1 µM in assay [1] (setting [3]) and in assay [2] (setting [4]) were 69% and 98%, respectively.
For `CN1CCc2c(n(CC(=O)N3CCCC3)c3ccc(Cl)cc23)C1` [Compound 40, 2-(6-chloro-1,2,3,4-tetrahydro-2-methylpyrido[3,4-b]indol-9-yl)-1-(pyrrolidin-1-yl)ethanone] the same measures were 5% and 7%.
For `Cc1ccc2c(c1)c1c(n2CCC(=O)N2CCCCC2)CN(C)CC1` [Compound 43, 3-(1,2,3,4-tetrahydro-2,6-dimethylpyrido[3,4-b]indol-9-yl)-1-(piperidin-1-yl)propan-1-one] the same measures were 69% and 30%.
For `CN1CCc2c(n(CCCC(=O)N3CCCCC3)c3ccc(Cl)cc23)C1` [Compound 44, 4-(6-chloro-1,2,3,4-tetrahydro-2-methylpyrido[3,4-b]indol-9-yl)-1-(piperidin-1-yl)butan-1-one] the same measures were 73% and 62%.
On to `CN1CCc2c(n(CC(=O)O)c3ccc(Cl)cc23)C1` [Compound 52, 2-(6-chloro-1,2,3,4-tetrahydro-2-methylpyrido[3,4-b]indol-9-yl)acetic acid], for which the inhibition at 1 µM in assay [1] (setting [3]) is -11%; in assay [2] (setting [4]), 3%.
For `Cc1ccc2c(c1)c1c(n2CC(=O)O)CN(C)CC1` [Compound 53, 2-(1,2,3,4-tetrahydro-2,6-dimethylpyrido[3,4-b]indol-9-yl)acetic acid] the same measures were -6% and 5%.
For `COC(=O)Cn1c2c(c3cc(Cl)ccc31)CCN(C)C2` [Compound 54, methyl 2-(6-chloro-2-methyl-3,4-dihydro-1H-pyrido[3,4-b]indol-9(2H)-yl)acetate] the same measures were 0% and 5%.
For `CN1CCc2c(n(CC(=O)N3CCNCC3)c3ccc(Cl)cc23)C1` [Compound 55, 2-(6-chloro-2-methyl-3,4-dihydro-1H-pyrido[3,4-b]indol-9(2H)-yl)-1-(piperazin-1-yl)ethanone] the same measures were 17% and 90%.
Consider `Cc1ccc(CCCn2c3c(c4cc(Cl)ccc42)CCN(C)C3)cn1` [Compound 56, 6-chloro-2-methyl-9-(3-(6-methylpyridin-3-yl)propyl)-2,3,4,9-tetrahydro-1H-pyrido[3,4-b]indole], for which the figures for the inhibition at 1 µM in assay [1] (setting [3]) and in assay [2] (setting [4]) were 12% and 30%, respectively.
For `Cc1ccc2c(c1)c1c(n2CC(=O)N2CCCCC2)CN(C)CC1` [Compound 57, 2-(2,6-dimethyl-3,4-dihydro-1H-pyrido[3,4-b]indol-9(2H)-yl)-1-(piperidin-1-yl)ethanone] the same measures were 28% and 0%.
For `CN1CCc2c(n(CC(=O)N3CCCCC3)c3ccc(Cl)cc23)C1` [Compound 58, 2-(6-chloro-2-methyl-3,4-dihydro-1H-pyrido[3,4-b]indol-9(2H)-yl)-1-(piperidin-1-yl)ethanone] the same measures were -10% and 2%.
For `CN1CCc2c(n(CC(O)c3ccccc3F)c3ccc(Cl)cc23)C1` (stereo not drawn) [Compound 59, 2-(6-chloro-2-methyl-3,4-dihydro-1H-pyrido[3,4-b]indol-9(2H)-yl)-1-(2-fluorophenyl)ethanol] the same measures were 80% and 13%.
In the case of `Cc1ccc2c(c1)c1c(n2CC(O)c2ccccc2F)CN(C)CC1` (stereo not drawn) [Compound 60, 2-(2,6-dimethyl-3,4-dihydro-1H-pyrido[3,4-b]indol-9(2H)-yl)-1-(2-fluorophenyl)ethanol], the inhibition at 1 µM in assay [1] (setting [3]) was 74%; in assay [2] (setting [4]), 19%.
For `Cc1ccc2c(c1)c1c(n2CC(C)(O)c2ccc(F)cc2)CN(C)CC1` (stereo not drawn) [Compound 61, 1-(2,6-dimethyl-3,4-dihydro-1H-pyrido[3,4-b]indol-9(2H)-yl)-2-(4-fluorophenyl)propan-2-ol] the same measures were 86% and 49%.
For `CN1CCc2c(n(CC(C)(O)c3ccc(F)cc3)c3ccc(Cl)cc23)C1` (stereo not drawn) [Compound 62, 1-(6-chloro-2-methyl-3,4-dihydro-1H-pyrido[3,4-b]indol-9(2H)-yl)-2-(4-fluorophenyl)propan-2-ol] the same measures were 88% and 48%.
In the case of `COc1ccc(C(O)Cn2c3c(c4cc(C)ccc42)CCN(C)C3)cc1OC` (stereo not drawn) [Compound 66], the inhibition at 1 µM was determined as 51% in assay [1] (setting [3]) and 19% in assay [2] (setting [4]).
For `Cc1ccc2c(c1)c1c(n2CC(O)c2ccccc2)CN(C)CC1` (stereo not drawn) [Compound 67] the same measures were 77% and 35%.
Turning to `COc1ccc(C(O)Cn2c3c(c4cc(Cl)ccc42)CCN(C)C3)cc1OC` (stereo not drawn) [Compound 70], the inhibition at 1 µM in assay [1] (setting [3]) was 56%; in assay [2] (setting [4]), 39%.
For `CN1CCc2c(n(CC(O)c3ccccc3)c3ccc(Cl)cc23)C1` (stereo not drawn) [Compound 71] the same measures were 87% and 54%.
For `Cc1ccc(C(O)Cn2c3c(c4cc(C)ccc42)CCN(C)C3)cc1` (stereo not drawn) [Compound 72] the same measures were 96% and 55%.
As to `Cc1ccc2c(c1)c1c(n2/C=C/c2ccccc2)CN(C)CC1` [Compound 92], the inhibition at 1 µM in assay [1] (setting [3]) was 97%; in assay [1] (compound concentration 1 μM, read-out: Percentage inhibition of ligand binding to 5-HT2A receptor), 97%; in assay [2] (setting [4]), 99%; in assay [2] (compound concentration 1 μM, read-out: Percentage inhibition of ligand binding to H1 receptor), 99%. In assay [1] (compound concentration 10 nM, read-out: Percentage inhibition of ligand binding to 5-HT2A receptor), the inhibition at 0.01 µM worked out at 13%. For the same compound, the inhibition at 0.03 µM in assay [1] (compound concentration 0.03 μM, read-out: Percentage inhibition of ligand binding to 5-HT2A receptor) was 37%; in assay [2] (compound concentration 0.03 μM, read-out: Percentage inhibition of ligand binding to H1 receptor), 67%. Besides, the inhibition at 0.1 µM worked out at 65% in assay [1] (compound concentration 0.1 μM, read-out: Percentage inhibition of ligand binding to 5-HT2A receptor) and 91% in assay [2] (compound concentration 0.1 μM, read-out: Percentage inhibition of ligand binding to H1 receptor). In addition, the inhibition at 0.3 µM in assay [1] (compound concentration 0.3 μM, read-out: Percentage inhibition of ligand binding to 5-HT2A receptor) was 83%; in assay [2] (compound concentration 0.3 μM, read-out: Percentage inhibition of ligand binding to H1 receptor), 96%.
